This note sets out measurements from ChEMBL document CHEMBL1142001, “Novel and orally bioavailable inducible nitric oxide synthase inhibitors: synthesis and evaluation of optically active 4,5-dialkyl-2-iminoselenazolidine derivatives” (Bioorg Med Chem Lett, 2005).

One data set deals with Nitric oxide synthase 1 (Homo sapiens, UniProt P29475). The data set is described as follows: Inhibitory concentration against neuronal […].
Data set [1] has as its target Nitric oxide synthase, inducible (Homo sapiens, UniProt P35228). The data set is described as follows: Inhibitory concentration against inducible […].
A short description of data set [2]: Area under the concentration time curve value of compound was determined in rats after oral dosage of 0.3 mg/kg. In kind it is ADME, organism-based. Particulars: rat, in vivo. Also on record: dose 0.3 mg/kg, route oral.
A short description of data set [3]: Tmax of compound (0.3 mg/kg) on oral administration to rats. Particulars: rat, in vivo. In kind it is ADME, organism-based.
The nature of data set [4]: Area under concentration time curve value in rat was determined at a intravenous dosage of 0.3 mg/kg. In kind it is ADME, organism-based. Also noted: dose 0.3 mg/kg, route intravenous. Particulars: in vivo.
Data set [5] can be described thus: Oral bioavailability of compound (0.3 mg/kg) on oral administration to rats. In kind it is ADME, organism-based. As to conditions: rat, in vivo, read-out: Bioavailabiility.
A short description of data set [6]: Half life value of compound (0.3 mg/kg) on intravenous administration to […]. In kind it is ADME, organism-based. Particulars: rat, in vivo.
A further data set deals with Mus musculus. The data set is described as follows: Inhibitory dose (p.o.) tested against plasma nitrite/nitrate levels in LPS-treated mice. In kind it is functional. Particulars: po, read-out: ID50 (the source's name).
The nature of data set [7]: Clearance rate (0.3 mg/kg) on intravenous administration to rats. In kind it is ADME, organism-based. Particulars: rat, in vivo.
Data set [8] can be described thus: Half life value of compound (0.3 mg/kg) on oral administration to rats. In kind it is ADME, organism-based. Particulars: rat, in vivo.
Data set [9] in a line: Cmax of compound (0.3 mg/kg) on oral administration to rats. Particulars: rat, in vivo. In kind it is ADME, organism-based. Also noted: dose 0.3 mg/kg, route oral.

Sequence of Nitric oxide synthase 1 (P29475 whole entry): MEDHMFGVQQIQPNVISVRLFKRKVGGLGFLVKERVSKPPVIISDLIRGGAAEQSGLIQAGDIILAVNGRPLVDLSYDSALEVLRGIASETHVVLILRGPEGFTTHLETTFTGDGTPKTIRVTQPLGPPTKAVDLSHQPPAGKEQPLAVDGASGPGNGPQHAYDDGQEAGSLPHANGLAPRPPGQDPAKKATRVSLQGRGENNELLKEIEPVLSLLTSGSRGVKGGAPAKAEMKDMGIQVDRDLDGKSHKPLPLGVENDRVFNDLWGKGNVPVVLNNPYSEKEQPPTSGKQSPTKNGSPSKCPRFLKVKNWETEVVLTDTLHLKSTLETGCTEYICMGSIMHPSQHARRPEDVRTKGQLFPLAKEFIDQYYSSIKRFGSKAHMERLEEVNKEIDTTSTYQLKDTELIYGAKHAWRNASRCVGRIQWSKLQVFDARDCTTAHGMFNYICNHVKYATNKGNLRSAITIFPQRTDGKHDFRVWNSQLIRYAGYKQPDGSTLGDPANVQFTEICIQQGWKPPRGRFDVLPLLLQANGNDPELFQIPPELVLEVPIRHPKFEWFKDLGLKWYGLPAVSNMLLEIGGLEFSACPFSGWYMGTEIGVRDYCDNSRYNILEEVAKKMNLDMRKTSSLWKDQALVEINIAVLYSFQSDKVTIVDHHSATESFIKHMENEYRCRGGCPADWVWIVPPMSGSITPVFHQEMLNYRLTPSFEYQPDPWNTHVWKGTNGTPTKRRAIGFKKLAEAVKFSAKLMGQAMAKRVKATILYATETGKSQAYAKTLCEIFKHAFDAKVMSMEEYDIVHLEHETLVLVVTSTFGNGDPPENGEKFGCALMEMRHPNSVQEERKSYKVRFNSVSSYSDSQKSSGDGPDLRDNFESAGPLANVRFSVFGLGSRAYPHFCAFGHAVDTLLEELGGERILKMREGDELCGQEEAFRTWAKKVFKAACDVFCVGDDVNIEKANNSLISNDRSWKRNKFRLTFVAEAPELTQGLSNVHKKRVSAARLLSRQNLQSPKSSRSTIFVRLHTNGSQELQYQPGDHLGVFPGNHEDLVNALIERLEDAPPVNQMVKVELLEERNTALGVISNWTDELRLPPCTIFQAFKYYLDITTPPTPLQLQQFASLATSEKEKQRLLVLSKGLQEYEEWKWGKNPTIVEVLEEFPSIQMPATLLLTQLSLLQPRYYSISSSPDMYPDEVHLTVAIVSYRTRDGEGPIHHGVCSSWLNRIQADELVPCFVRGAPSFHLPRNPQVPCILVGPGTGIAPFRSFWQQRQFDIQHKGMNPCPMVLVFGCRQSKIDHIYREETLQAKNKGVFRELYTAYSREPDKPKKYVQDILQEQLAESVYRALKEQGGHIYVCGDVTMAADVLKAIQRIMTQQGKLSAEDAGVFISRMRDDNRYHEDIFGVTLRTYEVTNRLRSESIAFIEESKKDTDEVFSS
Sequence of Nitric oxide synthase, inducible (P35228 whole entry): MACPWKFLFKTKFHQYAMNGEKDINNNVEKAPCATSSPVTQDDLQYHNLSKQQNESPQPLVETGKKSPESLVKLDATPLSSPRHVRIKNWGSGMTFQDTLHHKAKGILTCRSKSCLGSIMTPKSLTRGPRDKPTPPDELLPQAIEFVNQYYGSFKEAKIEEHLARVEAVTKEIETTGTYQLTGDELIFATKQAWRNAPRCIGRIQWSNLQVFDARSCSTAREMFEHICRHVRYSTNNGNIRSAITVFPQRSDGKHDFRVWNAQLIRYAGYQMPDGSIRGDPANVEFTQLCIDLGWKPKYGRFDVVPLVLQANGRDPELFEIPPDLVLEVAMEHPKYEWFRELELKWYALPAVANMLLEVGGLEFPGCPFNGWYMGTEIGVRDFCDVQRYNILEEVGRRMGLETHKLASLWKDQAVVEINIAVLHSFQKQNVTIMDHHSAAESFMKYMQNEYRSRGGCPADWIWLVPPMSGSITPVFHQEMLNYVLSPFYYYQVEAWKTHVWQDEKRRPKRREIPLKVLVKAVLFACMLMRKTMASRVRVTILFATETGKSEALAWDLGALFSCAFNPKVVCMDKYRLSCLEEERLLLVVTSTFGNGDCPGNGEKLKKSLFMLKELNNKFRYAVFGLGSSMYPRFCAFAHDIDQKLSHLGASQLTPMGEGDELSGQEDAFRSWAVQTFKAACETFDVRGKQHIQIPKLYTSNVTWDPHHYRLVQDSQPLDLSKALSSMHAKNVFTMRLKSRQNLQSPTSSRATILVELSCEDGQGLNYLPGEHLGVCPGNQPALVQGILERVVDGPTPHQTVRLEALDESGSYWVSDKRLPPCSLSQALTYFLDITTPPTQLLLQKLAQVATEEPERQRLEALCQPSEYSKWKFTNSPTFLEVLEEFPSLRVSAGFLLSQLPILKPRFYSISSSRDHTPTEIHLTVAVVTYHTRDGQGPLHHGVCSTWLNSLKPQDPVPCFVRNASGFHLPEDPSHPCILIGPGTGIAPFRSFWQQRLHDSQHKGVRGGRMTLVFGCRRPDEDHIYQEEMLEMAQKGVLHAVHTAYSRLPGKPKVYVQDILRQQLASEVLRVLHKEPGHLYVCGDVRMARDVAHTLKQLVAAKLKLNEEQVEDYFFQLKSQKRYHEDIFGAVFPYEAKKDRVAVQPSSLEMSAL

The IC50 is the concentration needed to halve the response being measured. The low end stands for higher potency, the high end for lower potency. Regarding `CC[C@@H]1N=C(N)[Se][C@H]1C`, the IC50 at Nitric oxide synthase 1 was determined as 280 nM; in data set [1], 21 nM.
Regarding `CC[C@@H]1[Se]C(N)=N[C@@H]1C`, the IC50 on Nitric oxide synthase 1 worked out at 1300 nM; in data set [1], 66 nM.
`CC[C@H]1N=C(N)[Se][C@@H]1C`: the IC50 against Nitric oxide synthase 1 is 92 nM; in data set [1], 9.4 nM.
Taken in the same sequence, the figures for `CC[C@@H]1N=C(N)[Se][C@@H]1C` were 740 nM and 80 nM.
Taken in the same sequence, the figures for `CC[C@@H]1[Se]C(N)=N[C@H]1C` were 350 nM and 34 nM.
Taken in the same sequence, the figures for `CC[C@H]1[Se]C(N)=N[C@H]1C` were 6900 nM and 340 nM.
In the case of `CC[C@H]1N=C(N)[Se][C@H]1C`, the IC50 came out at 280 nM on Nitric oxide synthase 1 and 21 nM in [1].
What is called AUC is the area under the concentration-time curve, a measure of exposure. Low readings indicate low exposure, high ones high exposure. The Tmax is the time at which the peak concentration occurs. As a reminder, the half-life is the time needed for the level to fall by half in the phase considered. A higher half-life goes with slow loss. Broadly, the clearance is the rate of elimination divided by the concentration. What is called Cmax is the peak of the concentration-time curve. As for `CC[C@H]1[Se]C(N)=N[C@@H]1C`, the AUC in data set [2] amounted to 45 ng·h/mL; in data set [4], 117 ng·h/mL. In addition, the Tmax in [3] was 30 min. Also, in data set [5], the bioavailability was determined as 73%. Besides, the half-life in data set [6] was 57 min; in data set [8], 72 min. In addition, in the data set on Mus musculus, the ED50 came to 0.3 mg/kg. The IC50 on Nitric oxide synthase 1 was 790 nM; in [1], 9.3 nM. In data set [7], this compound gave a clearance of 55.5 mL/min/kg. In addition, the concentration in data set [9] peaked (Cmax) at 45 ng/mL.
For the compound `CC[C@H]1SC(N)=N[C@@H]1C`, the IC50 against Nitric oxide synthase 1 was 380 nM; in data set [1], 6.6 nM.
